The target of assay [1] is T1, Human 5-LOX (Homo sapiens, UniProt P09917).
T1 construct: purchased Cayman Chemical Company #60402
The assay is described as follows: Human 5-LOX assay. It counts as biochemical. As to conditions: RG7774 10 µM; read-out: Mean ± SEM % inhibition of control, Human 5-LOX. On the procedure: The inhibitory effects of different concentrations of RG7774 (0.1-500 µM) on the activities of human recombinant 5-LOX (Cayman Chemical Company #60402), 15-LOX (Cayman Chemical Company #10011263), and human platelet-derived 12-LOX were determined using the Biovision Lipoxygenase Activity Assay Kit (#BVN-K978-100). This kit converts the LOX substrate to an intermediate that reacted with the probe, generating a fluorescent product. The effect of RG7774 (preincubated for 15 min) at 10 µM on LOXs (5-LOX: 0.5 or 1.2 µg; 12-LOX: 20 µg; 15-LOX: 0.23 or 0.3 µg) was ascertained by adding the compounds directly to the incubation medium and the fluorescent signal, recorded at excitation/emission 500/536 nm at 30 sec intervals for 30-40 min, was directly proportional to LOX activity. […] The percentage of human 5-, 12-, and 15-LOX activity (control) was estimated from the amount of oxidized probe in the reaction using a standard curve.

Assay [2] concerns retinal microglia migration. The assay is described as follows: Laser-induced CNV in rats, microglia volume on laser lesions. The format is in vivo, Brown Norway rats. On the procedure: Right eyes were transferred to a petri dish containing 10% neutral-buffered formalin (NBF) and fixed for 5 min at RT. Eyes were prepared in PBS^−/– by removing the anterior segments and carefully separating the retinas from the posterior segments (retinal pigment epithelium/choroid and sclera). Dissected retinas were cut into petals, transferred to 2 × 24 well plates containing fresh 10% NBF solution, and fixed for 2 h at RT. […]
Microglia migration towards laser-injured retinal regions was quantified from 3D RGB-images (CZI-files) of the fluorescently labeled retinal samples, a workflow and image analytics tool was applied that allowed a semi-automated volumetric quantitation of Iba1-positive pixel per image frame integrated over the Z-dimension. […] Subsequently, TIFF images were analyzed using IDL (Interactive Data Language, Version 6.4) in combination with Excel 2010 to compute RGB-channel-dependent threshold images (pdf-files) with a histogram between 1–255 A.U. pixel intensity. […] The sum of pixels displaying the determined threshold intensity or higher was calculated and finally integrated over the Z-dimension of the 3D image.

Assay [3] has as its target T2, endogenous CB2R in mouse spleen tissues (Mus musculus, UniProt P47936).
T2 construct: from tissue; host or cells: mouse spleen membranes
The assay is described as follows: Competition binding, [^3H]-RO6753361, mouse spleen membranes. On the procedure:
Competition and saturation binding assays were performed using the radiolabeled CB1R/CB2R agonist [^3H]-CP55940 (PerkinElmer, Waltham, MA, United States) in recombinant cell systems, and the newly developed CB2R-selective agonist [^3H]-RO6753361 ([Chicca et al., 2024]) in cells expressing endogenous CB1R/CB2R. Competition assays were conducted by incubating 5, 40, or 40 µg of membrane protein from CHO cells, Jurkat cells or spleen cells, respectively, with 1.5 nM [^3H]-CP55940 or 1.5 nM [^3H]-RO6753361 in the presence or absence of increasing concentrations of ligand (RG7774 or control) for 2 h at 30°C in a final volume of 0.2 mL of assay buffer (50 mmol/L Tris-HCl, 5 mmol/L MgCl2, 2.5 mmol/L EDTA, and 0.5% fatty acid-free BSA [pH 7.4] and 1% DMSO), with gentle shaking. Saturation binding assays were conducted by incubating 1–3 μg, 40 μg, or 30–40 μg of membrane protein from CHO cells, Jurkat cells, or spleen tissue, respectively, with 12 concentrations in the range of 80–0.039 nM [^3H]-CP55940 or [^3H]-RO6753361 for 2 h at 30°C in a final volume of 0.2 mL/well of assay buffer without DMSO. […] IC50 values and Hill slopes were determined with a 4-parameter logistic model using ActivityBase (ID Business Solution, Guilford, United Kingdom) and pKi values were determined using the Cheng-Prusoff equation ([Cheng and Prusoff, 1973]).

By inhibition is commonly meant the change of the read-out against control, counted positive when it falls. For orientation: Ki means a dissociation constant, usually derived from enzyme kinetics or from competition with a known ligand. Low readings indicate higher affinity, high ones lower affinity.

T2 sequence (P47936 whole entry): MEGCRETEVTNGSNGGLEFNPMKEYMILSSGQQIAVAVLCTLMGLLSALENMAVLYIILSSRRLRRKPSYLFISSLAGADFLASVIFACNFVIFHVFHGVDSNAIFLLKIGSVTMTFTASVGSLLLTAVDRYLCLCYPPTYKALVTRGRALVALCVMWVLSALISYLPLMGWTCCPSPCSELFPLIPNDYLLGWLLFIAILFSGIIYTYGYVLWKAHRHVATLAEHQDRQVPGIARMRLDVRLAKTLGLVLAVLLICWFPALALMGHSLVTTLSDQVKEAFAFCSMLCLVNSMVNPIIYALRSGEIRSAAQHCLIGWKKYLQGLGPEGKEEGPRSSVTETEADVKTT
T1 sequence (P09917 whole entry): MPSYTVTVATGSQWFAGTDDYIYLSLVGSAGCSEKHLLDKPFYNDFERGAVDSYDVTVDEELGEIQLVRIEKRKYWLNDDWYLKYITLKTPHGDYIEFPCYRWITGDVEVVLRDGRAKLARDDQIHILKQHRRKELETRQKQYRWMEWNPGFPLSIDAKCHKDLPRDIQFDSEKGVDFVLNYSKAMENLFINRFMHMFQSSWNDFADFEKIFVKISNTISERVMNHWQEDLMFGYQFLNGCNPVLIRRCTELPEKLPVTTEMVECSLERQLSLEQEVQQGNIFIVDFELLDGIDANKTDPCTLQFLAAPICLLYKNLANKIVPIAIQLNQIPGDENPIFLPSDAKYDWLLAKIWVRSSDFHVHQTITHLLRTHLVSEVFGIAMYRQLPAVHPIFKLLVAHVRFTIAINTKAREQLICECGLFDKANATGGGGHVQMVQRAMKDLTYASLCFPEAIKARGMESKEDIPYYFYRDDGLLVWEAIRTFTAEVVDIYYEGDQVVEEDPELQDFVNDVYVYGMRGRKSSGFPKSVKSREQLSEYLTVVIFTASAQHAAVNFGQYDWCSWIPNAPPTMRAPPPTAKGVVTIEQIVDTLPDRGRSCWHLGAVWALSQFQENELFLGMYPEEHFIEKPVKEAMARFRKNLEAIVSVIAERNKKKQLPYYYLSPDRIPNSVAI

For `Cn1nnnc1Cn1nnc2c(N3CC[C@H](O)C3)nc(C(C)(C)C)nc21` [RG7774, (S)-1-(5-tert-butyl-3-[(1-methyl-1H-tetrazol-5-yl)methyl]-3H-[1,2,3]triazolo[4,5-d]pyrimidin-7-yl)pyrrolidin-3-ol], in assay [1], the inhibition at 10 µM is -20.5%. The “reduction of microglia volumes in lasered versus non-lasered regions” value stood at 25% in assay [2] (3 mg/kg oral gavage) and 41% in assay [2] (10 mg/kg oral gavage). In assay [3], this molecule gave a Ki of 39.7 ± 13.5 nM.

The values above are taken from PMC11272598, “RG7774 (Vicasinabin), an orally bioavailable cannabinoid receptor 2 (CB2R) agonist, decreases retinal vascular permeability, leukocyte adhesion, and ocular inflammation in animal models” (Frontiers in Pharmacology, 2024).
